Data set [1] addresses T1, Solute carrier family 22 member 6 (Rattus norvegicus, UniProt O35956).
T1 sequence (O35956 whole entry): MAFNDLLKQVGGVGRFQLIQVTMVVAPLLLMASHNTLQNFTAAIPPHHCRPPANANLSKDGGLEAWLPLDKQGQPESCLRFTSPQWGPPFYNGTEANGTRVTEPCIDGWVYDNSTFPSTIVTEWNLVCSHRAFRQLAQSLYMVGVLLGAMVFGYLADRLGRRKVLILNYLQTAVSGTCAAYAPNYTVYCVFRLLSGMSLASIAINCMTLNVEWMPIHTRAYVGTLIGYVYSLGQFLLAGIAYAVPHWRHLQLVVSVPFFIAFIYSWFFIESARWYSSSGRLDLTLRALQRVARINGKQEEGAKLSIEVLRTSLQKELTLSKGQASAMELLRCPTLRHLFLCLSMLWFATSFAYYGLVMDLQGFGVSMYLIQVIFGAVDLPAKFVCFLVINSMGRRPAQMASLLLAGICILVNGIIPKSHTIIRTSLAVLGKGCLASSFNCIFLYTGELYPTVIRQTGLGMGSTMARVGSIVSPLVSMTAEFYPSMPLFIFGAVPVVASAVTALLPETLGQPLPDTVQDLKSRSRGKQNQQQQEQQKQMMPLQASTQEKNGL
Put plainly: TP_TRANSPORTER: uptake in Xenopus laevis oocytes. Format: functional, cell-based. As to conditions: oocyte.

The target in data set [2] is T1, Solute carrier family 22 member 6. Kind of data set: TP_TRANSPORTER: inhibition of PAH uptake in Xenopus laevis oocytes. As to conditions: for Activity: xenopus laevis, oocyte. In kind it is functional, cell-based, Oocyte.
Substrate in data set [3]: Nc1ccc(C(=O)NCC(=O)O)cc1
Kind of data set: cells, lysate or membranes named.

Take `CC(=O)Nc1nnc(S(N)(=O)=O)s1` [ACETAZOLAMIDE]: the Activity entry in data set [1] is “substrate [+]”. The molecule further displayed a Ki in data set [2] of 1100 µM.

`CCCCNc1cc(C(=O)O)cc(S(N)(=O)=O)c1Oc1ccccc1` [BUMETANIDE]: the inhibitory constant (Ki) in data set [2] was found to be 5.5 µM.

Take `NS(=O)(=O)c1cc2c(cc1Cl)N=CNS2(=O)=O` [CHLOROTHIAZIDE]: in data set [2], the Activity result was “inhibitor [+]”.

For `NS(=O)(=O)c1cc2c(cc1Cl)NC(C1CC3C=CC1C3)NS2(=O)=O` (stereo unspecified) [CYCLOTHIAZIDE], the Activity entry in data set [2] is “inhibitor [+]”.

As to `CCOc1ccc2nc(S(N)(=O)=O)sc2c1` [ETHOXZOLAMIDE], the Activity entry in data set [2] is “inhibitor [+]”.

As for `NS(=O)(=O)c1cc(C(=O)O)c(NCc2ccco2)cc1Cl` [FUROSEMIDE], the Activity entry in data set [1] was “substrate [+]”. In data set [2], this molecule came in with a Ki of 9.5 µM.

`NS(=O)(=O)c1cc2c(cc1Cl)NCNS2(=O)=O` [HYDROCHLOROTHIAZIDE] came in with a Ki in data set [2] of 150 µM.

In the case of `CC(=O)/N=c1/sc(S(N)(=O)=O)nn1C` [METHAZOLAMIDE], the Activity entry in data set [2] was “inhibitor [+]”.

B1: Solute carrier family 22 member 6 (Rattus norvegicus) (protein)
chain: T1 sequence (O35956 whole entry)
Regarding B1, in data set [3], the Michaelis constant (Km) worked out at 31 µM.
